Legend:
[1] = biological target: T1, CTSK in U2-OS and U-87 MG cells (Homo sapiens, UniProt P43235); assay: Fluorescence microscopy of CTSK inhibition in cell lines (GD32 probe); format: cell-based; details: 3 μM, 2 h
T1 construct: endogenous in cells; host or cells: U2-OS and U-87 MG
T1 sequence (P43235 115-329): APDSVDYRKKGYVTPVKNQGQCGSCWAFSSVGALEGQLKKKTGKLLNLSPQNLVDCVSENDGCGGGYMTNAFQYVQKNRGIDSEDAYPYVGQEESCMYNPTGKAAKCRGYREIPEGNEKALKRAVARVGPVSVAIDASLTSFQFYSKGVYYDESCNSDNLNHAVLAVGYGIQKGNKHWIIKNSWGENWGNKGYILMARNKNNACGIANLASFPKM
Procedure: We next corroborated CTSK-specific inhibition by fluorescence microscopy studies of OC. Human OC were grown on 8-well plates; the intact cells were treated with either of the CTSK inhibitors or with the vehicle and then with the CTSK-specific fluorescent ABP GD32.[19] The fluorescence microscopy pictures were acquired following cell fixation, which permitted imaging and evaluating CTSK activity and inhibition in cells. […] As the inhibitors are specific to CTSK, they could not block the fluorescence signals of GB123 associated with other cathepsins (B, L, S) (Figure 8b).
Figure 8 Detection of inhibition of endogenous cathepsin K in intact cells by fluorescence microscopy. Enriched human monocytes from peripheral blood mononuclear cells (PBMC) were isolated from healthy donors’ blood and were treated for 14 days with M-CSF and RANKL or M-CSF alone, as indicated. Osteoclast cells were treated with vehicle (DMSO) or indicated inhibitors [3 μM] in a culture medium for 2 h, followed by incubation with (a) GD32 (a specific CTSK ABP) for 8 h or (b) GB123 for 2 h. Similar to those described in panel (a), cultures of U2-OS cells (c) and U-87 MG cells (d) were grown in 8-well chambers. Cells were pretreated with either the DMSO or [3 μM] of indicated specific CTSK inhibitors for 2 h and then labeled by the addition of 1.25 μM GD32 to the culture medium for 24 h (U2-OS) or 2 h (U-87 MG). […]

human osteoclasts = assay: Bone resorption assay, pit formation on bone slices (toluidine blue); format: cell-based; details: Osteoclast, compared to vehicle-treated OC
Procedure: The selective blockage of cellular CTSK activity allowed us to assess the effect of the inhibitors on bone resorption induced by osteoclasts (OCs) as an important step toward therapeutic application in osteoporosis, bone metastases, and other diseases associated with excessive bone resorption. Human OCs were derived from CD14+ monocytes that were extracted from healthy donors’ blood and treated with M-CSF and RANKL, as described in Abdallah et al.[46] The OC were grown on cortical bone slices over 14 days in the presence of the CTSK inhibitors to evaluate the impact of inhibitors on bone resorption; see scheme (Figure 6a).
Figure 6 CTSK inhibition in human osteoclasts. (a) Scheme of the process of maturation of osteoclasts (OCs) derived from human monocytes in the presence of RANKL and M-CSF. […] (c) Quantitative analysis of pit formation in bone slices after incubation with OC treated with GD20 or ODN (1, 5 μM) relative to vehicle treated slices. […] (e) Quantification of osteoclasts number on bone slices after inhibitor treatment, detected by TRAP staining. […] The activity of CTSK in the cells was detected by 2 h labeling with a pan-cathepsin activity-based probe, GB123, followed by a fluorescence scan of the SDS-PAGE detecting CTSK attached to the probe; the red arrow points to the bands of CTSK (above 25 kDa). […]

| SMILES | CTSK activity labeled by GD32 probe [1] | inhibition at 5 µM (human osteoclasts) |
| --- | --- | --- |
| CC(C)C[C@H](N[C@@H](c1ccc(-c2ccc(S(C)(=O)=O)cc2)cc1)C(F)(F)F)C(=O)NCC(=O)COC(=O)[C@@H]1CCCN1C(=O)[C@H](CCC(N)=O)NC(=O)OCC1c2ccccc2-c2ccccc21 [GD38] | block CTSK activity |  |
| CC(C)(F)C[C@H](N[C@@H](c1ccc(-c2ccc(S(C)(=O)=O)cc2)cc1)C(F)(F)F)C(=O)NC1(C#N)CC1 [ODN, odanacatib, reference compound] |  | 93 ± 1.45% |
| CC(C)C[C@H](N[C@@H](c1ccc(-c2ccc(S(C)(=O)=O)cc2)cc1)C(F)(F)F)C(=O)NCC(=O)COC(=O)[C@@H]1CCCN1C(=O)[C@H](CC(C)C)NC(=O)OCC1c2ccccc2-c2ccccc21 [GD20] | block CTSK activity | 94 ± 1.57% |

Source: paper PMC11938014, “Development and Application of Small Molecule–Peptide Conjugates as Cathepsin K-Specific Covalent Irreversible Inhibitors in Human Osteoclast and Lung Cancer” (JACS Au, 2025)
